What was measured:
Type in all cases: cell-based
[1] = target: T1, GLP-1R (Homo sapiens, UniProt P43220); assay: In vitro cell activity, cAMP production in HEK293 cells expressing GLP-1R; details: HEK293-GLP-1R cells, cAMP; read-out: GLP-1R (EC50)
T1 construct: expressed in transfected cells; host or cells: HEK293 (HEK293-GLP-1R)
Experimental: (§1) After they were completely thawed within 1.5 minutes, the cells were added dropwise into a 15 mL centrifuge tube containing 8 mL of warm culture medium in a clean bench. The tubes were centrifuged at 900 rpm for 5 minutes, the supernatant was discarded, and the cells were resuspended in 1 mL of complete culture medium (by pipetting 15 times). 20 µL of the suspension was immediately taken and mixed with an equal volume of trypan blue. 20 µL was taken to count the number of live cells, and the cells were diluted to 4×10^5 cells/mL with complete culture medium. • 4) The 384-well plate was divided into GLP-1R cell, GCGR cell and GIPR cell areas. The cell suspension was added to the wells of the corresponding area at 5 µL per well using a 12-channel variable-channel adjustable dispenser. […] Then, the diluted cAMP-d2 working solution and anti-cAMP-crytate working solution were mixed evenly in a ratio of 1:1, and 10 µL was added to each well of the sample group. The wells were covered with white lids and placed at room temperature in the dark for 1 hour or at 4 °C overnight. • 6) The fluorescence values at 665 nm and 620 nm were detected in a multifunctional microplate reader. In GraphPad Prism 6, the signal ratio and sample concentration were nonlinearly fitted using a four-parameter equation to obtain the EC50 value.

[2] = target: T2, GCGR (Homo sapiens, UniProt P47871); assay: In vitro cell activity, cAMP production in HEK293 cells expressing GCGR; details: HEK293-GCGR cells, cAMP; read-out: GCGR (EC50)
T2 construct: expressed in transfected cells; host or cells: HEK293 (HEK293-GCGR)
T2 sequence (P47871 26-477, species assumed): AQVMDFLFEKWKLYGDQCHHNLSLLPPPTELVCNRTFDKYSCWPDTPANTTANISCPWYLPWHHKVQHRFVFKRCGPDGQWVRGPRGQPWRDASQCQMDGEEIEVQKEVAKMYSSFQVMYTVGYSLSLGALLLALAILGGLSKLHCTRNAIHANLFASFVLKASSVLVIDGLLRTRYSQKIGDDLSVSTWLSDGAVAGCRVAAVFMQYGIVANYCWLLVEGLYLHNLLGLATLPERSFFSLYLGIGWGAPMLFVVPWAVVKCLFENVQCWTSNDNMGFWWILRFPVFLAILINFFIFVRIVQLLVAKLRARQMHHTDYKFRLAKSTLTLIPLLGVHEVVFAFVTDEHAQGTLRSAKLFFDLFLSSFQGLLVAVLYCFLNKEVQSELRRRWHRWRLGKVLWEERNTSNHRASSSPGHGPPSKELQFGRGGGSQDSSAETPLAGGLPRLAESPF
Experimental: as §1

[3] = target: T3, GIPR (Homo sapiens, UniProt P48546); assay: In vitro cell activity, cAMP production in HEK293 cells expressing GIPR; details: HEK293-GIPR cells, cAMP; read-out: GIPR (EC50)
T3 construct: expressed in transfected cells; host or cells: HEK293 (HEK293-GIPR)
T3 sequence (P48546 22-466): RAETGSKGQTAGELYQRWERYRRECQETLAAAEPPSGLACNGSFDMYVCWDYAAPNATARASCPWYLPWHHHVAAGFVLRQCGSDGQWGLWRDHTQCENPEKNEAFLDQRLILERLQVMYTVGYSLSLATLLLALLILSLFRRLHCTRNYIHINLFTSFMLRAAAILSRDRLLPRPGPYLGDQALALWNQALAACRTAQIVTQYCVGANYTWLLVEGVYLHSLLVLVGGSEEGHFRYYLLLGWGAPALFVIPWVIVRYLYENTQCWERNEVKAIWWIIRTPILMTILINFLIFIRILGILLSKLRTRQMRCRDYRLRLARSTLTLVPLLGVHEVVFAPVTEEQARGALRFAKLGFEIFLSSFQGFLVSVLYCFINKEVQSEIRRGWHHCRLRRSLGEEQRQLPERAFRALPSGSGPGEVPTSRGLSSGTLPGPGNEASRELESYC
Experimental: as §1, with “The wells were covered with white lids and placed at room temperature in the dark for 1 hour or at 4 °C overnight. • 6) The fluorescence values at 665 nm and 620 nm were detected in a multifunctional microplate reader.” left out

T1 sequence (P43220 24-463, species assumed): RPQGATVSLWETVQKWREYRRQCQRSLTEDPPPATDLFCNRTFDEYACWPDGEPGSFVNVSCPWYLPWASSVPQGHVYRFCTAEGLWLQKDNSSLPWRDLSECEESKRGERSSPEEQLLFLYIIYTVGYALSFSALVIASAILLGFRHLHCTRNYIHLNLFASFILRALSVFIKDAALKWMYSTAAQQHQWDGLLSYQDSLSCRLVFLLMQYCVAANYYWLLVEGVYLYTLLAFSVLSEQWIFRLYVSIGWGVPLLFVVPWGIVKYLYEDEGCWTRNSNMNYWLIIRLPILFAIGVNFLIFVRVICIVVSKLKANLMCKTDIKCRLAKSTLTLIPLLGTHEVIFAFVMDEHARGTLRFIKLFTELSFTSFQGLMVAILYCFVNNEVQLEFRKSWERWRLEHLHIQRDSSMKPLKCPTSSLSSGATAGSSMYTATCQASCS

Row | SMILES | EC50 [1] [pM] | EC50 [2] [pM] | EC50 [3] [pM]
1 | CC[C@H](C)[C@H](NC(=O)[C@H](Cc1ccccc1)NC(=O)[C@H](C)NC(=O)[C@H](CCCNC(=N)N)NC(=O)[C@H](CCC(N)=O)NC(=O)[C@H](C)NC(=O)[C@H](CCCCNC(=O)COCCOCCNC(=O)CC[C@H](NC(=O)CCCCCCCCCCCCCCCCCCC(=O)O)C(=O)O)NC(=O)[C@H](CCC(=O)O)NC(=O)[C@H](CC(=O)O)NC(=O)[C@H](CC(C)C)NC(=O)[C@H](CC(C)C)NC(=O)[C@@H](NC(=O)[C@H](CO)NC(=O)[C@H](Cc1ccc(O)cc1)NC(=O)[C@H](CC(=O)O)NC(=O)[C@H](CO)NC(=O)[C@@H](NC(=O)[C@](C)(Cc1ccccc1F)NC(=O)[C@@H](NC(=O)CNC(=O)[C@H](Cc1c[nH]cn1)NC(=O)C(C)(C)NC(=O)[C@@H](N)Cc1ccc(O)cc1)[C@@H](C)O)[C@@H](C)O)[C@@H](C)CC)C(=O)N[C@@H](CCC(=O)O)C(=O)N[C@@H](Cc1ccc(O)cc1)C(=O)N[C@@H](CC(C)C)C(=O)N[C@@H](CC(C)C)C(=O)N[C@@H](C)C(=O)NCC(=O)NCC(=O)N1CCC[C@H]1C(=O)N[C@@H](CO)C(=O)N[C@@H](CO)C(=O)NCC(=O)N[C@@H](C)C(=O)N1CCC[C@H]1C(=O)N1CCC[C@H]1C(=O)N1CCC[C@H]1C(=O)N[C@@H](CO)C(=O)O [HEC-PT83] | 256 | 311 | 158
2 | CC[C@H](C)[C@H](NC(=O)[C@H](Cc1ccccc1)NC(=O)[C@H](C)NC(=O)[C@H](CCCNC(=N)N)NC(=O)[C@H](CCC(N)=O)NC(=O)[C@H](C)NC(=O)[C@H](CCCCNC(=O)COCCOCCNC(=O)CC[C@H](NC(=O)CCCCCCCCCCCCCCCCCCC(=O)O)C(=O)O)NC(=O)[C@H](CCC(=O)O)NC(=O)[C@H](CC(=O)O)NC(=O)[C@H](CC(C)C)NC(=O)[C@H](CC(C)C)NC(=O)[C@@H](NC(=O)[C@H](CO)NC(=O)[C@H](Cc1ccc(O)cc1)NC(=O)[C@H](CC(=O)O)NC(=O)[C@H](CO)NC(=O)[C@@H](NC(=O)[C@](C)(Cc1ccccc1F)NC(=O)[C@@H](NC(=O)CNC(=O)[C@H](Cc1c[nH]cn1)NC(=O)C(C)(C)NC(=O)[C@@H](N)Cc1ccc(O)cc1)[C@@H](C)O)[C@@H](C)O)[C@@H](C)CC)C(=O)N[C@@H](CCC(=O)O)C(=O)N[C@@H](Cc1ccc(O)cc1)C(=O)N[C@@H](CC(C)C)C(=O)N[C@@H](CC(C)C)C(=O)N[C@@H](CCC(=O)O)C(=O)NCC(=O)NCC(=O)N1CCC[C@H]1C(=O)N[C@@H](CO)C(=O)N[C@@H](CO)C(=O)NCC(=O)N[C@@H](C)C(=O)N1CCC[C@H]1C(=O)N1CCC[C@H]1C(=O)N1CCC[C@H]1C(=O)N[C@@H](CO)C(=O)O [HEC-PT84] | 291 | 306 | 232
3 | CC[C@H](C)[C@H](NC(=O)[C@H](Cc1ccccc1)NC(=O)[C@H](C)NC(=O)[C@H](CCCNC(=N)N)NC(=O)[C@H](C)NC(=O)[C@H](CCCNC(=N)N)NC(=O)[C@H](CCCCNC(=O)COCCOCCNC(=O)CC[C@H](NC(=O)CCCCCCCCCCCCCCCCCCC(=O)O)C(=O)O)NC(=O)[C@H](CCC(=O)O)NC(=O)[C@H](CC(=O)O)NC(=O)[C@H](CC(C)C)NC(=O)[C@H](CC(C)C)NC(=O)[C@@H](NC(=O)[C@H](CO)NC(=O)[C@H](Cc1ccc(O)cc1)NC(=O)[C@H](CC(=O)O)NC(=O)[C@H](CO)NC(=O)[C@@H](NC(=O)[C@](C)(Cc1ccccc1F)NC(=O)[C@@H](NC(=O)CNC(=O)[C@H](CCC(N)=O)NC(=O)C(C)(C)NC(=O)[C@@H](N)Cc1ccc(O)cc1)[C@@H](C)O)[C@@H](C)O)[C@@H](C)CC)C(=O)N[C@@H](CCC(=O)O)C(=O)N[C@@H](Cc1ccc(O)cc1)C(=O)N[C@@H](CC(C)C)C(=O)N[C@@H](CC(C)C)C(=O)N[C@@H](C)C(=O)NCC(=O)NCC(=O)N1CCC[C@H]1C(=O)N[C@@H](CO)C(=O)N[C@@H](CO)C(=O)NCC(=O)N[C@@H](C)C(=O)N1CCC[C@H]1C(=O)N1CCC[C@H]1C(=O)N1CCC[C@H]1C(=O)N[C@@H](CO)C(=O)O [HEC-PT88] | 130 | 35 | 485
4 | CC[C@H](C)[C@H](NC(=O)[C@H](Cc1ccccc1)NC(=O)[C@H](CCC(=O)O)NC(=O)[C@H](CCCNC(=N)N)NC(=O)[C@H](C)NC(=O)[C@H](CCCNC(=N)N)NC(=O)[C@H](CCCCNC(=O)COCCOCCNC(=O)CC[C@H](NC(=O)CCCCCCCCCCCCCCCCCCC(=O)O)C(=O)O)NC(=O)[C@H](CCC(=O)O)NC(=O)[C@H](CC(=O)O)NC(=O)[C@H](CC(C)C)NC(=O)[C@H](CC(C)C)NC(=O)[C@@H](NC(=O)[C@H](CO)NC(=O)[C@H](Cc1ccc(O)cc1)NC(=O)[C@H](CC(=O)O)NC(=O)[C@H](CO)NC(=O)[C@@H](NC(=O)[C@](C)(Cc1ccccc1F)NC(=O)[C@@H](NC(=O)CNC(=O)[C@H](Cc1c[nH]cn1)NC(=O)C(C)(C)NC(=O)[C@@H](N)Cc1ccc(O)cc1)[C@@H](C)O)[C@@H](C)O)[C@@H](C)CC)C(=O)N[C@@H](CCC(=O)O)C(=O)N[C@@H](Cc1c[nH]c2ccccc12)C(=O)N[C@@H](CC(C)C)C(=O)N[C@@H](CC(C)C)C(=O)N[C@@H](CCC(=O)O)C(=O)NCC(=O)NCC(=O)N1CCC[C@H]1C(=O)N[C@@H](CO)C(=O)N[C@@H](CO)C(=O)NCC(=O)N[C@@H](C)C(=O)N1CCC[C@H]1C(=O)N1CCC[C@H]1C(=O)N1CCC[C@H]1C(=O)N[C@@H](CO)C(=O)O [HEC-PT89] | 172 | 41.9 | 214
5 | CC[C@H](C)[C@H](NC(=O)[C@H](Cc1ccccc1)NC(=O)[C@H](CCC(=O)O)NC(=O)[C@H](CCC(N)=O)NC(=O)[C@H](CCC(N)=O)NC(=O)[C@H](C)NC(=O)[C@H](CCCCNC(=O)COCCOCCNC(=O)CC[C@H](NC(=O)CCCCCCCCCCCCCCCCCCC(=O)O)C(=O)O)NC(=O)[C@H](CCC(=O)O)NC(=O)[C@H](CC(=O)O)NC(=O)[C@H](CC(C)C)NC(=O)[C@H](CC(C)C)NC(=O)[C@@H](NC(=O)[C@H](CO)NC(=O)[C@H](Cc1ccc(O)cc1)NC(=O)[C@H](CC(=O)O)NC(=O)[C@H](CO)NC(=O)[C@@H](NC(=O)[C@](C)(Cc1ccccc1F)NC(=O)[C@@H](NC(=O)CNC(=O)[C@H](CCC(N)=O)NC(=O)C(C)(C)NC(=O)[C@@H](N)Cc1ccc(O)cc1)[C@@H](C)O)[C@@H](C)O)[C@@H](C)CC)C(=O)N[C@@H](CCC(=O)O)C(=O)N[C@@H](Cc1c[nH]c2ccccc12)C(=O)N[C@@H](CC(C)C)C(=O)N[C@@H](CC(C)C)C(=O)N[C@@H](C)C(=O)NCC(=O)NCC(=O)N1CCC[C@H]1C(=O)N[C@@H](CO)C(=O)N[C@@H](CO)C(=O)NCC(=O)N[C@@H](C)C(=O)N1CCC[C@H]1C(=O)N1CCC[C@H]1C(=O)N1CCC[C@H]1C(=O)N[C@@H](CO)C(=O)O [HEC-PT90] | 313 | 7070 | 186
6 | CC[C@H](C)[C@H](NC(=O)[C@H](CC(C)C)NC(=O)[C@H](Cc1c[nH]c2ccccc12)NC(=O)[C@H](CCC(N)=O)NC(=O)[C@@H](NC(=O)[C@H](Cc1ccccc1)NC(=O)[C@H](C)NC(=O)[C@H](CCC(N)=O)NC(=O)[C@H](CCC(N)=O)NC(=O)[C@H](C)NC(=O)[C@H](CCCCNC(=O)COCCOCCNC(=O)CC[C@H](NC(=O)CCCCCCCCCCCCCCCCCCC(=O)O)C(=O)O)NC(=O)[C@H](CCC(=O)O)NC(=O)[C@H](CC(=O)O)NC(=O)[C@H](CC(C)C)NC(=O)[C@H](CC(C)C)NC(=O)[C@@H](NC(=O)[C@H](CO)NC(=O)[C@H](Cc1ccc(O)cc1)NC(=O)[C@H](CC(=O)O)NC(=O)[C@H](CO)NC(=O)[C@@H](NC(=O)[C@](C)(Cc1ccccc1F)NC(=O)[C@@H](NC(=O)CNC(=O)[C@H](CCC(N)=O)NC(=O)C(C)(C)NC(=O)[C@@H](N)Cc1ccc(O)cc1)[C@@H](C)O)[C@@H](C)O)[C@@H](C)CC)C(C)C)C(=O)N[C@@H](C)C(=O)NCC(=O)NCC(=O)N1CCC[C@H]1C(=O)N[C@@H](CO)C(=O)N[C@@H](CO)C(=O)NCC(=O)N[C@@H](C)C(=O)N1CCC[C@H]1C(=O)N1CCC[C@H]1C(=O)N1CCC[C@H]1C(=O)N[C@@H](CO)C(=O)O [HEC-PT92] | 104 | 1850 | 77.9

Source: EP4596574A1, “GLP-1/GCG/GIP TRIPLE-RECEPTOR AGONIST AND USE THEREOF” (Sunshine Lake Pharma Co., Ltd., priority 2022, dated 2024)
